# Source: patent US10695355B2, “Methods for pharmacologic treatment of stroke” (University of Connecticut, priority 2017, dated 2020)
# How the values were obtained:
# [1] = test system: Middle Cerebral Artery occlusion (MCAo) model, male C57B/6 mice; experiment: Neurological deficit (ND) score after MCAo stroke; format: in vivo
# Excerpt: (§1) Middle cerebral artery occlusion and bilateral ovariectomy: We induced focal transient cerebral ischemia by a 60-minute right middle cerebral artery occlusion (MCAo) under isoflurane anesthesia followed by reperfusion for either 3, 15, or 30 days. […] The 15- and 30-day time points represent sub-acute and chronic recovery as discussed in the art. Briefly, we performed a midline ventral neck incision and unilateral right MCAo by advancing a 6.0 silicone rubber-coated monofilament (Doccol Corporation, CA) 10-11 mm from the internal carotid artery bifurcation via an external carotid artery stump. We monitored rectal temperatures with a temperature control system (Fine Science Tools, Canada), maintaining the temperature at approximately 37° C. during surgery with an automatic heating pad. We used laser doppler flowmetry (DRT 4/Moor Instruments Ltd, Devon, UK) to measure cerebral blood flow and to confirm occlusion (reduction to 15% of baseline cerebral blood flow) and reperfusion. All animals were fed with wet mash for one week after surgery to ensure adequate nutrition for chronic endpoints, as animals have rearing deficits after stroke. In sham mice, we performed identical surgeries except the suture was not advanced into the internal carotid artery. For the gonadal hormone-mediated outcome study, we ovariectomized (ovxed) female mice two weeks prior to stroke surgery.
# Neurological deficit score: The neurological deficit (ND) score is a crude assessment of post-stroke behavioral recovery. We recorded ND scores, ranging from 0 to 4, at several time points after stroke. Our standard scoring system was as follows: 0, no deficit; 1, forelimb weakness and torso turning to the ipsilateral side when held by the tail; 2, circling to affected side; 3, unable to bear weight on affected side; and 4, no spontaneous locomotor activity or barrel rolling.
# Male C57B/6 (2-3 month old; 22-28 g) mice were used in this experiment. The ischemia duration was 60 minutes, with reperfusion for 72 hours. […]
# Solubility in water/PBS = format: physicochemical
# [2] = test system: Middle Cerebral Artery occlusion (MCAo) model, male C57B/6 mice; experiment: Infarct volume after middle cerebral artery occlusion (MCAo) stroke; format: in vivo; settings: 60 min ischemia, 72 h reperfusion, vs vehicle
# Excerpt: as §1
# Cresyl violet staining for infarct volume and tissue atrophy analysis: We measured tissue infarct (day 3) or tissue atrophy (day 30) after stroke as described in the art. Briefly, we sacrificed the mice after stroke surgery with an overdose of Avertin (250 mg/kg intraperitoneally, i.p). After blood collection by cardiac puncture, we performed trans-cardiac perfusion on the mice using cold phosphate buffered saline (PBS) followed by 4% paraformaldehyde. Brains were then fixed overnight and placed in cryoprotectant (30% sucrose in PBS) for 72 hours before processing. We then sliced the brains into 30-μm free-floating sections using a freezing microtome; every eighth slice was mounted and stained with cresyl violet. […]
# [3] = test system: Middle Cerebral Artery occlusion (MCAo) model, male C57B/6 mice; experiment: Open field test (exploratory activity, anxiety-like behavior) after MCAo stroke; format: in vivo; settings: first dose 4 hour after stroke, reperfusion 30 days
# Excerpt: (§2) Sensory motor deficit test: We used the open field test (OFT) and rotarod test to measure spontaneous locomotor activity/anxiety-like behavior and motor balance coordination, respectively, at baseline and post-mcao days 2, 7, 14, 21, and 28. As the OFT is a non-stressful test, we performed the OFT prior to the rotarod test, on the same day with one hour difference between tests.
# Open field test: The OFT is a common measure of exploratory behavior and general activity in rodents, which can be used both qualitatively and quantitatively. Briefly, we placed mice in a corner of a clear acrylic box (16″×16″) and allowed them to explore the box for ten minutes. We quantified locomotor activity as the total number of beam breaks by a computer-operated, open-field photobeam activity system (San Diego Instruments, San Diego, Calif.). We calculated the percentage of beam breaks in the center zone (16/3″×16/3″) compared to the total as a measure of anxiety-like behavior. Importantly, OFT tests can be administered at several time points to view trends without hindrance by habituation.
# Male C57B/6 (2-3 month old; 22-28 g) mice were used in a Middle Cerebral Artery occlusion (MCAo) model. The ischemia duration was 60 mins and the reperfusion was 30 days. […] Vehicle was 1% DMSO in 0.5% methyl cellulose (n=5 Behaviors were measured weekly using methods described above. (n=7).
# [4] = test system: Middle Cerebral Artery occlusion (MCAo) model, male C57B/6 mice; experiment: Rotarod test (sensorimotor deficit) after MCAo stroke; format: in vivo; settings: 0.5 mg/kg p.o./day for 3 days, first dose 4 hour after stroke; reperfusion 30 days, measured weekly; drug vs vehicle
# Excerpt: as §2
# Rotarod test: The rotarod test examines motor coordination in mice. We placed mice on a rotating cylindrical rod accelerating from two to ten rotations per minute, over a span of five minutes. Each subject performed two trials with a 20-minute break between the two trials. We recorded the latency to fall from the rotating rod for each trial (in seconds), and used the mean latency for comparison between groups.
# Male C57B/6 (2-3 month old; 22-28 g) mice were used in a Middle Cerebral Artery occlusion (MCAo) model. The ischemia duration was 60 mins and the reperfusion was 30 days. The drug was 5-BDBD- (0.5 mg/kg p.o./day in 1% DMSO and 0.5% methyl cellulose suspension) administered for 3 days. The first dose was given at 4 hour after stroke. Vehicle was 1% DMSO in 0.5% methyl cellulose (n=5 Behaviors were measured weekly using methods described above. (n=7).
# [5] = 0.5 mg/kg p.o./day for 3 days, first dose 4 hour after stroke, cresyl violet
Structure (SMILES),"ND score ([1]; 0.5-5 mg/kg in 1xPBS via Alzet mini osmotic pump (SC) for 3 days, after 3 days of stroke, vs vehicle)",solubility (Solubility in water/PBS),"stroke infarct size ([2]; 0.5-5 mg/kg in 1xPBS via Alzet mini osmotic pump (SC) for 3 days, TTC)","Neurological deficit score measured after 3 days of stroke ([1]; 0.5 mg/kg p.o./day for 3 days, first dose 4 hour after stroke, 60 min ischemia, vs vehicle)","neurological deficit (ND) score ([1]; oral 0.5 mg/kg daily for 5 days beginning on the day of stroke, MCAo 60 minute followed by reperfusion)",post stroke anxiety (% C/P = % time spent in center/time spent in periphery) ([3]; 0.5 mg/kg p.o./day for 3 days (acute treatment)),"total exploratory activity ([3]; 0.5 mg/kg p.o./day for 3 days, drug vs vehicle)",rotarod test (test for sensorimotor deficit) [4],"cortical infarct volume [2, 5]","hemispheric infarct volume [2, 5]"
"O=C1CC(=O)N(c2cccc(-c3noc(=S)[nH]3)c2)c2ccc3ccccc3c2N1 [NP-1815-PX, 5-[3-(5-thioxo-4H-[1,2,4]oxadiazol-3-yl)phenyl]-1H-naphtho[1,2-b][1,4]diazepine-2,4(3H,5H)-dione]",improve,Water/PBS Soluble,could reduce,,,,,,,
"O=C1CN=C(c2cccc(Br)c2)c2oc3ccccc3c2N1 [5-BDBD, 5-(3-Bromophenyl)-1,3-dihydro-2H-Benzofuro[3,2-e]-1,4-diazepin-2-one]",,,,reduces,improved significantly,reduces post stroke anxiety up to a month,similar,overall significant difference,reduces,reduces
